Test results published in the supplement of paper PMC10627819.

What was measured:
S. pneumoniae D39V = experiment: fitness (endpoint OD595 vs no drug) (fraction); higher = more growth
Summary of the method: (§1)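 Bacterial growth was followed in 384-well plates seeded at OD595 0.01, with 30 µl per well, or 55 µl for S. pneumoniae, in TSB, LB Lennox or CY at 37 °C. OD595 was read every 30 min for 14 h, and each reading had the first reading subtracted as background. Fitness is the background-corrected optical density at entry into stationary phase divided by the robust mean of the no-drug control wells. This ratio is capped at 1.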

B. subtilis 168 = experiment: as above
Summary of the method: as §1

O=C(O)[C@H]1/C(=C/CO)O[C@@H]2CC(=O)N21 [Clavulanic acid] + C[C@@H](O)[C@H]1C(=O)N2C(C(=O)O)=C(SCCNC=N)C[C@H]12 [Imipenem]
fitness, S. pneumoniae D39V
Details | partner 0.005 µg/mL | partner 0.0065 µg/mL | partner 0.01 µg/mL | partner 0.013 µg/mL | partner 0.02 µg/mL | partner 0.026 µg/mL
first compound 0.5 µg/mL | 0.976 | 0.974 | 0.987 | 0.968 | 0.935 | 0.883
first compound 1 µg/mL | 0.887 | 0.92 | 0.899 | 0.891 | 0.888 | 0.892
first compound 2 µg/mL | 0.737 | 0.82 | 0.724 | 0.791 | 0.655 | 0.789

O=C(O)[C@H]1/C(=C/CO)O[C@@H]2CC(=O)N21 [Clavulanic acid] + C[C@H]1COc2c(N3CCN(C)CC3)c(F)cc3c(=O)c(C(=O)O)cn1c23 [Levofloxacin]
fitness, B. subtilis 168, one replicate
Details | first compound 1.5 µg/mL | first compound 3 µg/mL | first compound 6 µg/mL
partner 0.001 µg/mL | 0.908 | 0.852 | 0.776
partner 0.0078 µg/mL | 0.919 | 0.872 | 0.82

Details | fitness
B. subtilis 168, first compound 1.5 µg/mL, partner 0.002 µg/mL | 0.836
B. subtilis 168, first compound 1.5 µg/mL, partner 0.0039 µg/mL | 0.821
B. subtilis 168, first compound 1.5 µg/mL, partner 0.0312 µg/mL | 0.0412
B. subtilis 168, first compound 1.5 µg/mL, partner 0.0625 µg/mL | 0.0486
B. subtilis 168, first compound 1.5 µg/mL, partner 0.125 µg/mL | 0.0536
B. subtilis 168, first compound 3 µg/mL, partner 0.002 µg/mL | 0.829
B. subtilis 168, first compound 3 µg/mL, partner 0.0039 µg/mL | 0.81
B. subtilis 168, first compound 3 µg/mL, partner 0.0312 µg/mL | 0.0294
B. subtilis 168, first compound 3 µg/mL, partner 0.0625 µg/mL | 0.0351
B. subtilis 168, first compound 3 µg/mL, partner 0.125 µg/mL | 0.0411
B. subtilis 168, first compound 6 µg/mL, partner 0.002 µg/mL | 0.734
B. subtilis 168, first compound 6 µg/mL, partner 0.0039 µg/mL | 0.72
B. subtilis 168, first compound 6 µg/mL, partner 0.0312 µg/mL | 0.0384
B. subtilis 168, first compound 6 µg/mL, partner 0.0625 µg/mL | 0.0352
B. subtilis 168, first compound 6 µg/mL, partner 0.125 µg/mL | 0.0346
S. pneumoniae D39V, first compound 0.5 µg/mL, partner 0.1725 µg/mL | 0.948
S. pneumoniae D39V, first compound 0.5 µg/mL, partner 0.2 µg/mL | 0.914
S. pneumoniae D39V, first compound 0.5 µg/mL, partner 0.345 µg/mL | 0.881
S. pneumoniae D39V, first compound 0.5 µg/mL, partner 0.4 µg/mL | 0.681
S. pneumoniae D39V, first compound 0.5 µg/mL, partner 0.69 µg/mL | 0.61
S. pneumoniae D39V, first compound 0.5 µg/mL, partner 0.8 µg/mL | 0.134
S. pneumoniae D39V, first compound 1 µg/mL, partner 0.1725 µg/mL | 0.927
S. pneumoniae D39V, first compound 1 µg/mL, partner 0.2 µg/mL | 0.805
S. pneumoniae D39V, first compound 1 µg/mL, partner 0.345 µg/mL | 0.842
S. pneumoniae D39V, first compound 1 µg/mL, partner 0.4 µg/mL | 0.599
S. pneumoniae D39V, first compound 1 µg/mL, partner 0.8 µg/mL | 0.242
S. pneumoniae D39V, first compound 2 µg/mL, partner 0.1725 µg/mL | 0.841
S. pneumoniae D39V, first compound 2 µg/mL, partner 0.2 µg/mL | 0.623
S. pneumoniae D39V, first compound 2 µg/mL, partner 0.345 µg/mL | 0.735
S. pneumoniae D39V, first compound 2 µg/mL, partner 0.4 µg/mL | 0.431
S. pneumoniae D39V, first compound 2 µg/mL, partner 0.69 µg/mL | 0.423
S. pneumoniae D39V, first compound 2 µg/mL, partner 0.8 µg/mL | 0.103
